The values that follow are results of earlier work, collected in EP2042172A1, “Use of tocopherol derivatives as inhibitors of the notch signalling pathway” (Inserm, priority 2007, dated 2009).

The data set has as its system axonal growth. Particulars: even in the presence of inhibitory signals (Hanbali et al., 2004); cited from earlier work.

Molecules are shown by their SMILES.

Take `CC1=C(CCCCCCCCCCCCCCCO)C(C)(C)CCC1=O` [tCFA15]: the “axonal growth in vitro” value was “promote axonal growth in vitro”.
